Reference: the NIST ThermoML archive (doi:10.1016/j.jct.2011.09.008)

Assay: xn = mol fraction of the nth substance listed
Conditions: 101 kPa, Liquid, Sing-around technique in a fixed-path interferometer

CCCOCC(C)O (stereo not given) [1-propoxy-2-propanol] + O
speed of sound [m/s]
Conditions | 283.15 K | 288.15 K | 293.15 K | 298.15 K | 303.15 K
x1 = 0.00326 | 1470.7 | 1487.1 | 1501.5 | 1514.2 | 1527.5
x1 = 0.00845 | 1503.1 | 1516.8 | 1528.7 | 1538.8 | 1548.3
x1 = 0.01369 | 1533.3 | 1543.7 | 1552.5 | 1560.1 | 1565.5
x1 = 0.01942 | 1563.4 | 1570.1 | 1575.7 | 1579.2 | 1581.5
x1 = 0.02453 | 1582.6 | 1585.6 | 1586.9 | 1586.7 | 1585.7
x1 = 0.02855 | 1594.9 | 1594 | 1591.7 | 1587.7 | 1582.4
x1 = 0.03532 | 1598 | 1590.9 | 1583.2 | 1575.1 | 1566.6
x1 = 0.04675 | 1577.1 | 1566.9 | 1557 | 1547.1 | 1536.8
x1 = 0.06359 | 1545.3 | 1535.2 | 1524.6 | 1513.5 | 1501.6
x1 = 0.08224 | 1520.5 | 1509.6 | 1498.1 | 1486 | 1472.6
x1 = 0.09758 | 1504.9 | 1493.2 | 1481 | 1467.8 | 1454
x1 = 0.1185 | 1487.8 | 1475.4 | 1462.3 | 1448.6 | 1434
x1 = 0.145 | 1470.9 | 1457.6 | 1444 | 1429.6 | 1414.6
x1 = 0.1945 | 1447.2 | 1433.1 | 1418.6 | 1403.7 | 1388.4
x1 = 0.2213 | 1437.3 | 1422.4 | 1407.9 | 1392.7 | 1377.5
x1 = 0.2686 | 1422.1 | 1406.9 | 1391.7 | 1376 | 1360.6
x1 = 0.3432 | 1402.5 | 1386.5 | 1370.8 | 1354.5 | 1338.5
x1 = 0.4424 | 1381.2 | 1364.5 | 1347.8 | 1330.9 | 1314.2
x1 = 0.5415 | 1363 | 1345.7 | 1328.4 | 1311 | 1293.7
x1 = 0.6444 | 1346.5 | 1328.6 | 1310.8 | 1293 | 1275.3
x1 = 0.7056 | 1337.3 | 1319.3 | 1301.3 | 1283.3 | 1265.3
x1 = 0.7569 | 1330.3 | 1312 | 1293.9 | 1275.7 | 1257.7
x1 = 0.7951 | 1325.2 | 1306.9 | 1288.7 | 1270.4 | 1252.4
x1 = 0.8374 | 1320.2 | 1301.4 | 1283.2 | 1264.8 | 1246.5
x1 = 0.88 | 1314.6 | 1296.2 | 1277.8 | 1259.4 | 1240.9
x1 = 0.9193 | 1310.3 | 1291.7 | 1273.4 | 1254.8 | 1236.5
x1 = 0.9597 | 1306 | 1287.3 | 1268.9 | 1250.2 | 1231.7
x1 = 1 | 1301.9 | 1283.2 | 1264.5 | 1245.8 | 1227.3
